From ChEMBL document CHEMBL1201862, “PubChem BioAssay data set” (2004)
The source made the active and inactive calls.

Key:
[1] = viability of HCT116 lacking mutant beta-catenin – cell-based, human colon tumor, dose response (AID 1045); assay type: functional;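 also: HCT116 colon tumor cells with beta catenin knocked out; cells exposed to compound for 60 hours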
[2] = tested on: A-375; assay: MITF: Counter assay: A375 proliferation Measured in Cell-Based System Using Plate Reader - 2084-03_Inhibitor_Dose_DryPowder_Activity. [Related pubchem assays (depositor defined):AID488944]; assay type: functional; conditions: Homo sapiens
[3] = tested on: A-375; assay: proliferation inhibition in MITF-low A375 cells – cell-based, cherry-pick samples, set 2, counter-screen for MITF modulator project, dose response (AID 540335); assay type: functional; conditions: Homo sapiens
[4] = target: T1, Microphthalmia-associated transcription factor (Homo sapiens, UniProt O75030); assay: reducers of TRPM1 reporter luminescence, concentration series – cell-based, SK-MEL-5, cherry-picked, set 3, MITF inhibitor project, dose response (AID 493073); assay type: functional;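 also: SK-MEL-5 melanoma cells with luciferase driven by the MITF target TRPM1 promoter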
T1 sequence (O75030 whole entry): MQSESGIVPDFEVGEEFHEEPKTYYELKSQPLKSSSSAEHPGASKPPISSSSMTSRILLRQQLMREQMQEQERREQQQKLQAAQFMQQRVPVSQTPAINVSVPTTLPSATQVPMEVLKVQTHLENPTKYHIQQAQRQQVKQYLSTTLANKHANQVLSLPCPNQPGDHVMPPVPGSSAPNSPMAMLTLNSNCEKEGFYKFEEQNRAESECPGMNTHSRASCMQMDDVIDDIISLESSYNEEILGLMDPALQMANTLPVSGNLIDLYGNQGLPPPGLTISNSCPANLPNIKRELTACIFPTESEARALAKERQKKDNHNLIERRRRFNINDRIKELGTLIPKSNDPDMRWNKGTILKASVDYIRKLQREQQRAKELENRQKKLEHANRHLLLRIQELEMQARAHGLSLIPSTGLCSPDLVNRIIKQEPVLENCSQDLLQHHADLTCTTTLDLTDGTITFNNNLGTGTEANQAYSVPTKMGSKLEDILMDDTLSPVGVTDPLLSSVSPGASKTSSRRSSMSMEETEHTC

[5] = viability of PTEN-deleted HCT116 cells – cell-based, HCT116 PTEN knockout, dose response (AID 1047); assay type: functional;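 also: HCT116 colon tumor cells with PTEN knocked out; cells exposed to compound for 60 hours before readout; potency for loss of cell viability measured by luminescence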
[6] = target: Heat shock protein HSP 90-alpha (Homo sapiens, UniProt P07900); assay type: functional, organism-based
[7] = luciferase reporter signal suppression in cells – H4 neuroglioma cells, luminescence, dose response (AID 1990); assay type: functional, cell-based
[8] = target: Beta-galactosidase (Escherichia coli, UniProt Q8VNN2); assay: PubChem AID 485352; assay type: functional
Sequence of Beta-galactosidase (Q8VNN2 whole entry): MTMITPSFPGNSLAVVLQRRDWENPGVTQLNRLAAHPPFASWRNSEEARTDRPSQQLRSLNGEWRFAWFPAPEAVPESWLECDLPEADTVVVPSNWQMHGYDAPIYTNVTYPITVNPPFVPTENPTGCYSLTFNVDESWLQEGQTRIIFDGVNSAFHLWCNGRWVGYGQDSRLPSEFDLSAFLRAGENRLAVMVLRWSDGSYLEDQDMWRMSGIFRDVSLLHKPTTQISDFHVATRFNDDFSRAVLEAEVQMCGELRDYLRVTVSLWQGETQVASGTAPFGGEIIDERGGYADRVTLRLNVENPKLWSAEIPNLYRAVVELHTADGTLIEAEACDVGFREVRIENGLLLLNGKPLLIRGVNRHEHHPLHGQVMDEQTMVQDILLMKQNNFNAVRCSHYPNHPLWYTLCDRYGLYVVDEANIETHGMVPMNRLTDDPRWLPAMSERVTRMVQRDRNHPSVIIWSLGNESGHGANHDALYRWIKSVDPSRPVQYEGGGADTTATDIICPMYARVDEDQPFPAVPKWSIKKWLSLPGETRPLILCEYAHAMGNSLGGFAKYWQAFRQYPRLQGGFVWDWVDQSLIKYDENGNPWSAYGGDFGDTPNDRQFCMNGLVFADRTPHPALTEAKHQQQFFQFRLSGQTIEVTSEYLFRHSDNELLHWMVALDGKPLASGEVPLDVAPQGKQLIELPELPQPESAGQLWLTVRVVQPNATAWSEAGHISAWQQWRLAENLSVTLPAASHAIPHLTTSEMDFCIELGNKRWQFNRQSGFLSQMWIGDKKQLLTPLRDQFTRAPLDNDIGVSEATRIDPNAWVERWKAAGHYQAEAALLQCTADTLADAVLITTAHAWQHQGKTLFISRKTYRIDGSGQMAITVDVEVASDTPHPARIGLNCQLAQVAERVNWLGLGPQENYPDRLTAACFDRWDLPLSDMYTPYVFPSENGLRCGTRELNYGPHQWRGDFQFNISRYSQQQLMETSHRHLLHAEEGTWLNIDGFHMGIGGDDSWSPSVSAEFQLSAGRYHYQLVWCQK

[9] = target: Type-1 angiotensin II receptor (Homo sapiens, UniProt P30556); assay: antagonism of angiotensin II type 1 receptor – cell-based, uHTS hits, selectivity assay for APJ receptor antagonist project, dose response (AID 463214); assay type: functional;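 also: antagonist potency against angiotensin II stimulated AT1 response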
Sequence of Type-1 angiotensin II receptor (P30556 whole entry): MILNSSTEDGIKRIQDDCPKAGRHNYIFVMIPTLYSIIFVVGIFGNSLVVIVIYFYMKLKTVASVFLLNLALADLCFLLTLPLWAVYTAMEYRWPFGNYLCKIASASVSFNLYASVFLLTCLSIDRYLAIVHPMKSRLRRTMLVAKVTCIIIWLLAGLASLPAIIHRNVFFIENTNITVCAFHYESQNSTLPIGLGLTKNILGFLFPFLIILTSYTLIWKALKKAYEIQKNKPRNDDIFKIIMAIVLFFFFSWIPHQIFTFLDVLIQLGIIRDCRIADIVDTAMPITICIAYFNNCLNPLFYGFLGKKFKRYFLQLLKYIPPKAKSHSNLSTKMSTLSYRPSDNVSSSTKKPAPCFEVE

[10] = alpha-synuclein stem-loop luciferase translation blockers – H4 neuroglioma cells, luminescence, confirmation (AID 1988); assay type: functional, cell-based
[11] = Luminescence Cell-Based Dose Response HTS to Identify Inhibitors of 5'UTR Stem-Loop Driven Prion Protein mRNA Translation in H4 Neuroglioblastoma Cells. [Related pubchem assays: 1827 (Project Summary), 1813 (Primary HTS)]; assay type: functional
[12] = target: T2, Short transient receptor potential channel 4 (Mus musculus, UniProt Q9QUQ5); assay: calcium entry via TRPC4 opening agents – cell-based, HEK293 TRPC4/mu-opioid, Fluo-4 calcium, dose response (AID 434937); assay type: functional
T2 sequence (Q9QUQ5 whole entry): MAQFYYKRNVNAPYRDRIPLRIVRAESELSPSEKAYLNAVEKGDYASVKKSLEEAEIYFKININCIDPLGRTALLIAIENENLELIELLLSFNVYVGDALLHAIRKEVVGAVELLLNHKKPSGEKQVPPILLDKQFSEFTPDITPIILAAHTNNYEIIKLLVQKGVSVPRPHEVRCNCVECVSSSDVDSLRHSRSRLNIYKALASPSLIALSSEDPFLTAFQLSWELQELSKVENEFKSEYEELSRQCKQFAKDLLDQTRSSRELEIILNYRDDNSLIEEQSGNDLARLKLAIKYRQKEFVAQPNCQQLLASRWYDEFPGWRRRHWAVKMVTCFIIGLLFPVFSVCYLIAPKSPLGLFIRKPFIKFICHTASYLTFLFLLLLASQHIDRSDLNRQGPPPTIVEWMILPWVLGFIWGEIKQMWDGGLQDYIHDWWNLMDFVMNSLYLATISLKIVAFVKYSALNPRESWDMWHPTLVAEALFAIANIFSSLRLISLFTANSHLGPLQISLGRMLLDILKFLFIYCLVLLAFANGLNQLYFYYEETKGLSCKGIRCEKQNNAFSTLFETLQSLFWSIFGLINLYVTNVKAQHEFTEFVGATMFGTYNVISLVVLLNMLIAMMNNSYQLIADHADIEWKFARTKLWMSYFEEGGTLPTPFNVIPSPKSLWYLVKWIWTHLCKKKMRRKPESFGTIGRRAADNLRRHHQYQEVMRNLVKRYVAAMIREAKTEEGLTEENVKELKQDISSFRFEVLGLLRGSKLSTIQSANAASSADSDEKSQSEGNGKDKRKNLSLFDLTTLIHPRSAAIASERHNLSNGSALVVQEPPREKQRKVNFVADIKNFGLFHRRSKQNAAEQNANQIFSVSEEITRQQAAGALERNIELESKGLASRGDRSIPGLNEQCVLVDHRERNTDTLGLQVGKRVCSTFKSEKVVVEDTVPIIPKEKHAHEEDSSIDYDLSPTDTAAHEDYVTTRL

[13] = target: Ras and Rab interactor 1/Tyrosine-protein kinase ABL1 (Homo sapiens, UniProt P00519+Q13671); assay type: functional;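 also: biochemical TR-FRET dose-response test measuring inhibition of binding between Rin1 and Abl proteins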
Sequence of Ras and Rab interactor 1/Tyrosine-protein kinase ABL1 (P00519 whole entry): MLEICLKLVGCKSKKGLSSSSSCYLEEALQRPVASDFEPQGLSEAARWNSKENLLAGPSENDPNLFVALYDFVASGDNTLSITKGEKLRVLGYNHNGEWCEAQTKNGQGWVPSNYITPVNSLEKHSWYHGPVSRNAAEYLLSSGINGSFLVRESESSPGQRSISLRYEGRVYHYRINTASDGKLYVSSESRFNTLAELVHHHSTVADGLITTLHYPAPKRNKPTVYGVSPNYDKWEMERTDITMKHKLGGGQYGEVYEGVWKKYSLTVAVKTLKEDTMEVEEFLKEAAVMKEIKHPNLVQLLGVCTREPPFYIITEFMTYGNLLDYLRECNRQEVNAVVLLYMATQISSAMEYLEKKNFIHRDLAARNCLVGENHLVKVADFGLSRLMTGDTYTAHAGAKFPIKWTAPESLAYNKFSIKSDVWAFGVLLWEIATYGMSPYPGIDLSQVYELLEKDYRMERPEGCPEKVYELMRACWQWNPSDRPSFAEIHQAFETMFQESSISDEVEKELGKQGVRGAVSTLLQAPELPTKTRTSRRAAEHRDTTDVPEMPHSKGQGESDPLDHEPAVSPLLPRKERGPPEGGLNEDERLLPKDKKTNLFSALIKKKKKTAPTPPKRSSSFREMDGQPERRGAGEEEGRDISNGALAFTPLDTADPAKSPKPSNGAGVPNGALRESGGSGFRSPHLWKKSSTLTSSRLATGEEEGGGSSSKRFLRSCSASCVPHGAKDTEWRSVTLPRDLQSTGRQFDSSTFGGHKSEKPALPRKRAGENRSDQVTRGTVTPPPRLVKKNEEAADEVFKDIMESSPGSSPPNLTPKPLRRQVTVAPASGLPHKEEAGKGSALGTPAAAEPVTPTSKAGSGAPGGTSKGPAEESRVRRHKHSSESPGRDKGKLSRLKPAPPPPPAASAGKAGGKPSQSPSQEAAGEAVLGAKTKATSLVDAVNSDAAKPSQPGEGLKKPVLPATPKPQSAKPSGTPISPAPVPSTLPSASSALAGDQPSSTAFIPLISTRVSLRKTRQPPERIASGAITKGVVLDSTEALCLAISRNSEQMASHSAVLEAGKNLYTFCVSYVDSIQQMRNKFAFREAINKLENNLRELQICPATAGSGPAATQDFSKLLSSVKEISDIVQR
Sequence of Ras and Rab interactor 1/Tyrosine-protein kinase ABL1 (Q13671 whole entry): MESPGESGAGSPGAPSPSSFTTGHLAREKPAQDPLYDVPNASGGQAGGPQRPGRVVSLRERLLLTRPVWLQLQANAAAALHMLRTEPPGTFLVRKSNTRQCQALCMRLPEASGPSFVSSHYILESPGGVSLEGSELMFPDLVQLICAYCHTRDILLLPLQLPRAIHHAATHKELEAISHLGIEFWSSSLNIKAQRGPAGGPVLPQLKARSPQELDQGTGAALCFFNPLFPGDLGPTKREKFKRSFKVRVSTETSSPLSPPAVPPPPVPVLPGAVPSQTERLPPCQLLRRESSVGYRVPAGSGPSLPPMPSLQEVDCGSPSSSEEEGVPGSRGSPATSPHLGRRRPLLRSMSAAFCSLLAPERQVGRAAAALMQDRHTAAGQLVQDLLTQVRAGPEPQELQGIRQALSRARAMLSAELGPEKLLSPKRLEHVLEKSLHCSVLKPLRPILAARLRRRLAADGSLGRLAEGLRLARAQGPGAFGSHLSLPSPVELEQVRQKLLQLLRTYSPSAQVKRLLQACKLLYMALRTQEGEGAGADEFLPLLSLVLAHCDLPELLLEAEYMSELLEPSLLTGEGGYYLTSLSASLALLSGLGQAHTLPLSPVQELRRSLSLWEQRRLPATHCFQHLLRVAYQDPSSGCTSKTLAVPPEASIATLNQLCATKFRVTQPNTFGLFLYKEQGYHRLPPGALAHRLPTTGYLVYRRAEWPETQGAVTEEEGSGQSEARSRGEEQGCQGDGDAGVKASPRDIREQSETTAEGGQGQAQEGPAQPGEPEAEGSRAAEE

O=C(/C=C/c1cccc([N+](=O)[O-])c1)c1cccs1
EC50 [1]: 10.9 µM (active)
AC50 [2]: > 35 µM (active)
AC50 [3]: > 35 µM (active)
AC50 [4]: 15.3 µM (active)
EC50 [5]: 14.3 µM (active)
AC50 [6]: 4.16 µM (active)

COc1ccccc1C(=O)NNC(=S)NC(=O)c1cccs1
EC50 [7]: > 120 µM (not active)
EC50 [8]: > 40 µM (inactive)
IC50 [9]: 20.4 µM (not active)
EC50 [10]: > 120 µM (not active)
EC50 [11]: 13.2 µM (active)
AC50 [6]: 3.85 µM (active)
EC50 [12]: 6.68 µM (active)

O=C1CNC(=O)/C1=C\NC12CC3CC(CC(C3)C1)C2
IC50 [13]: 21 µM (inactive)

CCOC(=O)C1=C(C)N=C2CC(c3cccs3)CC(O)=C2C1c1cccs1 (stereo unspecified)
EC50 [8]: 39.3 µM (active)
IC50 [9]: 36 µM (not active)
